Drawing on patent EP0861891A1, “Compounds for modulating cell negative regulations and biological applications thereof” (INSTITUT NATIONAL DE LA SANTE ET DE LA RECHERCHE MEDICALE …, priority 1996, dated 1998), this text covers Kd for 1 molecule.

Where a SMILES comes first, the peptide text is derived from it.

This assay addresses T1, GST-SHP-1.SH2(C) (Mus musculus, UniProt P29351).
T1 construct: recombinant fusion proteins corresponding to the isolated N- and C-SH2 domains of SHP-1; made in house; host or cells: E. coli DH5α
T1 sequence (P29351 110-213 limits assumed): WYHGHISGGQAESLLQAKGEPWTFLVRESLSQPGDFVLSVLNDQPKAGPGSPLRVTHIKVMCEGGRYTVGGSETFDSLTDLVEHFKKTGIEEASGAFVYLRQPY
The experiment in a line: Surface plasmon resonance, binding of phosphorylated KIR ITIM peptides to SHP-1 C-SH2 domain. The note with it: calculated from koff/kon. More on the design: species or system murine. On the procedure: Fusion proteins and surface plasmon resonance analysis. Surface plasmon resonance (SPR) measurements were performed on a BIAcore™ (Pharmacia). The GST-SHP-1.SH2(NC), GST-SHP-1.SH2(N), GST-SHP-1.SH2(C), GST-SHIP.SH2 fusion proteins generated from the murine phosphatase cDNA, were purified from DH5α lysates. Briefly, overnight culture at 37°C in LB medium containing 50 µg/ml ampicillin was diluted 1/10 in fresh medium, and incubated until the absorbance at 600 nm reaches 1-2. At that point, IPTG was added (1mM), and incubation continued for an additional 4 hours at 37°C. […] Protein purity was assessed by 12.5 % SDS-PAGE, and Coomassie blue staining. […] Then, biotinylated peptides were injected, and their binding to streptavidine-coated microchips was assessed using anti-phosphotyrosine 4G10 mAb (UBI).
The measurement of phosphorylated p58.2 peptide binding to GST-SHP-1.SH2(N) and GST-SHP-1.SH2(C) fusion proteins was at a constant 5 µl/min flow rate. […] Results are expressed as corrected resonance units (CRU) corresponding to the raw RU values subtracted from background RU value due to the injection medium. In this representative experiment, 130 RU of p58.2.1 peptide and 160 RU of p58.2.2 peptide were immobilized on microchips. koff and kon were calculated from three independent measurements using the BIAevaluation 2.0 software. Kd was calculated from koff/kon.

As usually defined, the Kd is the equilibrium constant for the complex coming apart. Consider `CC[C@H](C)[C@H](NC(=O)[C@H](CC(=O)O)NC(=O)[C@@H](NC(=O)[C@@H]1CCCN1C(=O)[C@@H]1CCCN1C(=O)[C@@H](NC(=O)[C@H](CCCCN)NC(=O)[C@@H]1CCCN1C(=O)[C@H](CCCNC(=N)N)NC(=O)[C@H](CCC(N)=O)NC(=O)[C@H](CO)NC(=O)[C@@H]1CCCN1C(=O)[C@H](CCCNC(=N)N)NC(=O)CCCC[C@@H]1SC[C@@H]2NC(=O)N[C@@H]21)[C@@H](C)O)[C@@H](C)O)C(=O)N[C@H](C(=O)N[C@H](C(=O)N[C@@H](Cc1ccc(OP(=O)(O)O)cc1)C(=O)N[C@H](C(=O)N[C@@H](CCC(=O)O)C(=O)N[C@@H](CC(C)C)C(=O)N1CCC[C@H]1C(=O)N[C@@H](CC(N)=O)C(=O)N[C@@H](C)C(=O)N[C@@H](CCC(=O)O)C(=O)N1CCC[C@H]1C(=O)O)[C@@H](C)O)C(C)C)[C@@H](C)CC` [p58.2.2, RPSQRPKTPPTDIIVY333TELPNAEP] (HELM PEPTIDE1{[O=C1N[C@H]2[C@H](CS[C@H]2CCCCC(=O)[*:2])N1].R.P.S.Q.R.P.K.T.P.P.T.D.I.I.V.[O=C([C@H](Cc1ccc(OP(=O)(O)O)cc1)N[*:1])[*:2]].T.E.L.P.N.A.E.P}$$$$V2.0), for which the Kd was 545 nM.
